From patent publication US8350076B2, “Sodium channel blockers” (University of Virginia Patent Foundation, priority 2002, dated 2013)
Read-outs that look alike come from different tables or passages of the source. Marks after values point to notes of the source that are not given here.

How the values were obtained:
PC-3 cells [1] = conditions: cited from earlier work
MAT-LyLu cells = conditions: 6 µM; cited from earlier work
[2] = test system: sodium channel (BTX site 2); assay: 3H-BTX-B binding inhibition; conditions: for IC50: 3H-BTX-B Inhibition Data
Text: One assay used to screen compounds for modulators of sodium channel activity, is based on the use of the radioligand 3-[H]-BTX-B assay. BTX binds to site 2 on the channel protein and thus compounds that can compete with or inhibit BTX binding to the sodium channel are potential sodium channel inhibitors. This assay represents a facile tool to prescreen sodium channel binding before evaluating compounds in more rigorous functional assays such as through electrophysiology.

DU-145 = assay: Long-term growth assay (crystal violet), DU-145; type: cell-based; conditions: Homo sapiens, DU-145, 120 h; day 5; read-out: Day Five Effects on Cell line IC50 (μM) ± S.E.M., DU-145
Procedure: (§1) C4-2 cells were plated at cell densities established previously to reach saturation at day 7. The cells were allowed to recover overnight before a media change with the analogues (all at 40 μM) was performed. The assays were terminated at day 1, 3, 5 and 7. Media changes were performed on day 0, 2, 4 and 6 with fresh analogues added each time. The cells were then fixed with glutaraldehyde and stained with crystal violet. The dye is then eluted in Sorenson's solution and the absorbance read at 540 nm. […] These assays were repeated for DU145, PC-3 and the paired metastatic cell line PC-3M. The data were normalized to the day 7 DMSO control for each cell line to allow for direct cell:cell comparison.

[3] = test system: PSA secretion by PCa C4-2 cells; assay: PSA secretion by PCa C4-2 cells; type: cell-based, human; conditions: for decrease of PSA secretion on a per cell basis: 40 μM
Procedure: PSA levels are clinically important in following tumor progression and burden. Sodium channel blockers 1, 2 and 44 (at 40 μM) and phenyloin at (100 μM) were investigated for their ability to suppress PSA secretion by PCa C4-2 cells.

PC3 = assay: Long-term growth assay (crystal violet), PC3; type: cell-based; conditions: Homo sapiens, PC-3, 120 h; day 5; read-out: Day Five Effects on Cell line IC50 (μM) ± S.E.M., PC3
Procedure: as §1

[4] = test system: all PCa cell lines tested (C4-2, DU145, PC-3, PC-3M); assay: Long-term growth assay, panel of PCa cell lines; type: cell-based, human
Procedure: as §1

LNCaP = assay: Long-term growth assay (crystal violet), LNCaP; type: cell-based; conditions: Homo sapiens, 120 h, day 5, read-out: Day Five Effects on Cell line IC50 (μM) ± S.E.M., LNCaP
PC-3 cells [5] = assay: 3H-thymidine uptake (DNA synthesis) in PC-3 cells; type: cell-based, human; conditions: for inhibition at 1 µM / inhibition at 10 µM / inhibition at 20 µM / inhibition at 40 µM / inhibition at 100 µM: Homo sapiens, read-out: % Inhibition of PC3 Cells; for inhibition at 1 µM: PC-3, 1 μM; for inhibition at 10 µM: PC-3, 10 μM; for inhibition at 20 µM: PC-3, 20 μM; for inhibition at 40 µM: PC-3, 40 μM; for inhibition at 100 µM: PC-3, 100 μM; for effect on DNA synthesis (in words): dosages tested 1-100 μM
Procedure: The novel sodium channel blockers were assayed for activity against paired sets of cell lines with increasing metastatic potential, PC-3 and PC-3M (already androgen independent, AI), or increasing metastatic potential with increasing androgen independence, LNCaP and C4-2. DU145 was also included to provide another AI cell line with intermediate tumorigenicity between the LNCaP series and the PC-3 derivatives. This strategy allows an examination of at least three different genotypes for comparison of drug efficacy. […] The first assay used to screen these compounds was 3H-thymidine uptake in PC-3 cells. The cells were trypsinized, equal cell numbers were placed into each well and allowed to recover overnight.

PC-3M = assay: Long-term growth assay (crystal violet), PC-3M; type: cell-based; conditions: Homo sapiens, 120 h, day 5, read-out: Day Five Effects on Cell line IC50 (μM) ± S.E.M., PC-3M
Procedure: as §1

Nav1.5 = Nav1.5 (Homo sapiens, UniProt Q14524); assay: Electrophysiology, sodium currents in CHO cells stably expressing Nav1.5
C4-2 cells = assay: Long-term growth assay (crystal violet), C4-2; type: cell-based, human; conditions: for IC50: Homo sapiens, C4-2, 120 h, day 5, read-out: Day Five Effects on Cell line IC50 (μM) ± S.E.M., C4-2; for growth of C4-2 cells (in words): 40 μM, 7 days with drug
Procedure: as §1

[6] = test system: anchorage-independent colony formation; assay: Soft agarose colony formation (SACF), 3-D growth; type: cell-based; conditions: for inhibition in 3-D growth (SACF) as compared to phenytoin: same concentration as 2-D
cell growth in 2-D = assay: 2-D growth assay; type: cell-based; conditions: molar equivalence to the phenytoin IC50

Chain of Nav1.5 (Q14524 whole entry): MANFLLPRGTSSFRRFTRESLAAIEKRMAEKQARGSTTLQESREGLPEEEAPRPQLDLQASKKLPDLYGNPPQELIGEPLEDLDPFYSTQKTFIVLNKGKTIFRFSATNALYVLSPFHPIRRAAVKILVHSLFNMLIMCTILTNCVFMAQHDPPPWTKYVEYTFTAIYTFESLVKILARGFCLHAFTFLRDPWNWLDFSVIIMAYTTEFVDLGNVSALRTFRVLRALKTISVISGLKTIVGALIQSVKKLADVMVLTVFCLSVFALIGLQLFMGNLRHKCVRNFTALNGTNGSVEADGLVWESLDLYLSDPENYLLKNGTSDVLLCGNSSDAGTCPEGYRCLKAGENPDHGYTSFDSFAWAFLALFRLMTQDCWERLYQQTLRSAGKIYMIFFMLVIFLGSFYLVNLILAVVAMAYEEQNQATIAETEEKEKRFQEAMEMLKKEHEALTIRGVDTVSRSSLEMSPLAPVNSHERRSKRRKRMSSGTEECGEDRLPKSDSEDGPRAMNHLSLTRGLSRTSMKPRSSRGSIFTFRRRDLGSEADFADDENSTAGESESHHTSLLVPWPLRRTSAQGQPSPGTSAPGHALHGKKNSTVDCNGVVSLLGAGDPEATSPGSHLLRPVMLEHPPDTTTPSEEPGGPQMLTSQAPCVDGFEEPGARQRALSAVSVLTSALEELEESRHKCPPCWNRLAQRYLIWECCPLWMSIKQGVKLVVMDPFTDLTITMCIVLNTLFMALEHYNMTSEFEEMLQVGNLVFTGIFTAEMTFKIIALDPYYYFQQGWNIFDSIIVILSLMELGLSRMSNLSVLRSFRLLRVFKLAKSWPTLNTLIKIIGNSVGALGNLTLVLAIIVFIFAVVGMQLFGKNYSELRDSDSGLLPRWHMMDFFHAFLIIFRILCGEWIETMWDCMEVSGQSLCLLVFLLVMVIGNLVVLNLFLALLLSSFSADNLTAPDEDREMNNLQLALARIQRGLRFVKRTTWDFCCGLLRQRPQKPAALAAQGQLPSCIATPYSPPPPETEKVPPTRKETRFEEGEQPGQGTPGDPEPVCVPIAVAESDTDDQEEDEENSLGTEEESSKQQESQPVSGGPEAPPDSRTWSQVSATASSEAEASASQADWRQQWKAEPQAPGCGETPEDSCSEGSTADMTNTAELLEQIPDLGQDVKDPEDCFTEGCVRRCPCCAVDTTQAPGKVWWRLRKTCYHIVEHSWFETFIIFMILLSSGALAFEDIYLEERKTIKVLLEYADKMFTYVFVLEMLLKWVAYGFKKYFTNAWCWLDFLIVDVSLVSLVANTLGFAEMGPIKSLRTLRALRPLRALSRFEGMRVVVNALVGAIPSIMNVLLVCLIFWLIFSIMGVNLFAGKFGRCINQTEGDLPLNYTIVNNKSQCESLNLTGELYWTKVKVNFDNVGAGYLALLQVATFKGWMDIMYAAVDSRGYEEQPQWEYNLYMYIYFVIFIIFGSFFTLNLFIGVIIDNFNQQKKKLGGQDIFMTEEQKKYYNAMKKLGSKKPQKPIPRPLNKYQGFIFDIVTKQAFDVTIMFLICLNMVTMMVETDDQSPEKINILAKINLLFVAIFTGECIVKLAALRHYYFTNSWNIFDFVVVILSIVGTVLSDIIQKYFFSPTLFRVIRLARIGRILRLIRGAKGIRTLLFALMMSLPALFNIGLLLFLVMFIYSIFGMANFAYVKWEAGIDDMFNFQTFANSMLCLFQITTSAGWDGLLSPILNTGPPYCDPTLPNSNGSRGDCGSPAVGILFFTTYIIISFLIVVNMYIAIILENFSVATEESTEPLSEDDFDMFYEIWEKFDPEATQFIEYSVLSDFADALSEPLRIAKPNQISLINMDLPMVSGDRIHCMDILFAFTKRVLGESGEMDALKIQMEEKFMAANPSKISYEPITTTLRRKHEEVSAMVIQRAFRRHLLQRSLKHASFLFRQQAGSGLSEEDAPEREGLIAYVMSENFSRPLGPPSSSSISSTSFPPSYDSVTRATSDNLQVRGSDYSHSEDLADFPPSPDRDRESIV

SMILES | IC50 (DU-145) | decrease of PSA secretion on a per cell basis [3] | IC50 (PC3) | IC50 (LNCaP) | inhibition at 1 µM (PC-3 cells [5]) | inhibition at 10 µM (PC-3 cells [5]) | inhibition at 20 µM (PC-3 cells [5]) | inhibition at 40 µM (PC-3 cells [5]) | inhibition at 100 µM (PC-3 cells [5]) | effect on DNA synthesis (in words) (PC-3 cells [5]) | IC50 (PC-3M) | EC50 (Nav1.5) | IC50 (C4-2 cells) | also measured
NC1=N[C@H](O)[C@H]2[C@H]3O[C@]4(O)O[C@@H]([C@@H](O)[C@@]2(N1)[C@@H]4O)[C@]3(O)CO [TTX, Tetrodotoxin] | – | – | – | – | – | – | – | – | – | – | – | – | – | reduction of invasiveness of PC-3 cells (PC-3 cells [1]): 31%; inhibition of invasiveness of MAT-LyLu cells in vitro (MAT-LyLu cells): up to 50%
CCCCCCCC1(c2ccccc2)NC(=O)NC1=O (stereo not shown) [Compound 44] | 35.6 ± 2.6 µM | 14.9% | 66 ± 0.1 µM | 71.8 ± 1.8 µM | 12.8% | 26.6% | 32.7% | 55% | 82% | inhibited DNA synthesis better than phenyloin at all dosages tested | 58.4 µM | 29.8 ± 4.2 µM | 67.4 ± 1.3 µM | inhibition of 3H-BTX-B binding in comparison to phenytoin [2]: effective inhibition; IC50 [2]: 5 ± 1 µM; selectivity of growth inhibition (in words) ([4]; long-term growth assay): cell selective inhibition of growth; % Inhibition of PC3 Cells (PC-3 cells [5]; 40 μM): 55.09%
CCCCCCCC(O)(C(N)=O)c1ccc(F)cc1 (stereo not shown) [Compound 9] | – | – | – | – | – | – | – | – | – | – | – | 34.2 ± 7.4 µM | – | –
CCCCCCCC(O)(C(N)=O)c1cccc(Cl)c1 (stereo not shown) [Compound 1] | 56 ± 0.7 µM | 42.5% | 66 ± 0.7 µM | 72.2 ± 0.1 µM | – | – | – | – | – | – | 61.9 ± 0.1 µM | – | 51.3 ± 0.2 µM | IC50 ([3]; Homo sapiens, C4-2, dose-response curve, read-out: IC50 for reducing PSA): ~10 µM; Number of mice with impaired balance on the rotating rod/total # of animals tested (mice; 30 mg/kg i.p., 0.5 hours): 0/4; Number of mice with impaired balance on the rotating rod/total # of animals tested (mice; 30 mg/kg i.p., 4.0 hours): 0/2; Number of mice with impaired balance on the rotating rod/total # of animals tested (mice; 100 mg/kg i.p., 0.25 hours): 0/4^a; Number of mice with impaired balance on the rotating rod/total # of animals tested (mice; 100 mg/kg i.p., 0.5 hours): 1/8; Number of mice with impaired balance on the rotating rod/total # of animals tested (mice; 100 mg/kg i.p., 1.0 hours): 1/8; Number of mice with impaired balance on the rotating rod/total # of animals tested (mice; 300 mg/kg i.p., 0.5 hours): 3/4; Number of mice with impaired balance on the rotating rod/total # of animals tested (mice; 300 mg/kg i.p., 4.0 hours): 0/2; tolerated dose (mice; mice, i.p., acute): up to 300 mg/kg; inhibition in 3-D growth (SACF) as compared to phenytoin [6]: approximately 87.2%; cells' growth, % of controls (maximum inhibition) ([4]; normalized to day 7 DMSO control): 20-25 % of controls; inhibition in 2-D growth assays (cell growth in 2-D): 66.3%; growth of C4-2 cells (in words) (C4-2 cells): remarkable inhibition of growth
CCN(CC)CC(=O)Nc1c(C)cccc1C [lidocaine, reference compound] | – | – | – | – | – | – | – | – | – | – | – | – | – | growth of C4-2 cells (in words) (C4-2 cells): mildly stimulatory
O=C1NC(=O)C(c2ccccc2)(c2ccccc2)N1 [phenytoin, reference compound] | – | – | – | – | -23.8% | -13.9% | -21.8% | -12.5% | 30.8% | stimulatory | – | > 200 µM | – | IC50 [2]: 40 µM; inhibition at 100 µM ([3]; Homo sapiens, C4-2, 100 μM): 17.8%; inhibition of SACF compared to the DMSO/EtOH control plates [6]: 25.7%
CCCCCCCC(O)(C(N)=O)c1ccc(Cl)cc1 (stereo not shown) [Compound 2] | 67.2 ± 0.1 µM | 41.8% | 66.8 ± 1.2 µM | 64.1 ± 4.3 µM | -3.61% | 25.2% | 44.6% | 48.9% | 96.2% | inhibited DNA synthesis better than phenyloin at all dosages tested | 50 µM | 12.7 ± 2.7 µM | 61.1 ± 0.1 µM | inhibition of 3H-BTX-B binding in comparison to phenytoin [2]: effective inhibition; enhanced inhibition using SACF, % of phenytoin [6]: 41.5 % of phenyloin; inhibition in 3-D growth (SACF) as compared to phenytoin [6]: ~62%; inhibition in 2-D growth assays (cell growth in 2-D): 42.3%
